Consider two compounds from patent publication US10703800B2, “Cell culture medium” (La Jolla Biologics, Inc., priority 2016, dated 2020).

In series [1] the test system is CHO.DXB11 cells. To be noted: fed once daily, range 0.1% to 0.4% v/v. On the procedure:
Ethanol cytotoxicity to CHO.DXB11 cells was determined by daily feed dosing. 4 mL of CHO cells at 3 e6/mL cellular density were seeded into 6 well deep plates, mixed at 150 RPM, and fed once daily with ethanol ranging from 0.1% to 0.4% volume to volume (v/v).

Series [2] deals with CHO.DXB11 cells. The note with it: 14 day fed-batch. The method, then:
(§1) Antibody production was performed as described above for mAb 1.
Ethanol was fed daily between 0.0% and 0.018% v/v. Calculated cumulative cell culture concentration (concentration in vessel at time of cell harvest) of ethanol ranged between 0.0%-0.2% v/v. Bioreactor physical conditions were maintained at a pH of 7.0±0.2 shifted to 6.8±0.1, dissolved oxygen maintained at 30% air saturation and a constant temperature of 35° C. Basal and feed media were fully synthetic and chemically defined containing no animal derived components.
The same basal media was used in formulation #1 and #2. Feed formulation #1 and #2 were similar in composition containing the same type and amount of amino acids and vitamins. Salt and metal ion type and concentration were slightly varied. Both feeds were fully synthetic and chemically defined containing no animal derived components.

In another series the test system is CHO.DXB11 derived clone. The note with it: ethanol 0.057% v/v fed daily vs baseline, 12 day fed-batch, mAb1. On the procedure:
To determine if ethanol altered mAb properties it was incorporated into fully defined and synthetic feed media and fed daily in a fed-batch process using micro—(15 mL working volume) bioreactors.
as §1
Cell line A is a CHO.DXB11 derived clone producing mAb 1. Cell line B is a different CHO.DXB11 derived clone producing mAb1. The expression cassette is identical between the two cell lines.
(§2) Ethanol was fed daily 0.0% or 0.057% v/v using microscale bioreactors and two different cellular clones producing mAb1. Calculated cumulative cell culture concentration (concentration in vessel at time of cell harvest) of ethanol ranged between 0.0%-0.51% v/v. Bioreactor physical conditions were maintained at a pH of 7.0±0.2, dissolved oxygen at 30% air saturation and a temperature of 35° C. during logarithmic cellular growth phase and shifted to 31° C. during cellular production phase (temperature was shifted one day before max viable cell density was reached). Basal and feed media were fully synthetic and chemically defined containing no animal derived components.

The subject of a further series is CHO.DG44 derived clone. The note with it: higher ethanol concentrations (0.05%, 0.15% v/v fed daily) vs baseline, 13 day fed-batch, mAb 2. The method, then:
Antibody production was performed as described above for mAb 2. This cell line is a CHO.DG44 derived clone producing mAb 2.
Ethanol was fed daily between 0.0% and 0.15% v/v. Calculated cumulative cell culture concentration (concentration in vessel at time of cell harvest) of ethanol ranged between 0.0%-1.35% v/v. Bioreactor physical conditions were maintained at a pH of 7.0±0.1 shifted to 6.8±0.1, dissolved oxygen maintained at 30% air saturation and a constant temperature of 35° C. Basal and feed media were fully synthetic and chemically defined containing no animal derived components.

For series [3], the system named is CHO.DXB11 cells. The note with it: 12 day fed-batch, prediction profile. The source says: Ethanol was used in design of experiments (DOE) created with custom DOE design using JMP statistical software (World Wide Web.jmp.com/en_us/home.html). A response model was created using standard least squares to determine the significance of response from ethanol supplementation. Potential interactions with other supplemented components were also considered. Ethanol was fed daily between 0.0% and 0.1% using microscale bioreactors. FIG. 9 is a prediction response profile for Titer, Man5%, G0%, Acidic % and Basic % species while the change in response values for each of these is shown depicted in Table 4 below.

In series [4] the test system is CHO.DXB11 cells. To be noted: high ethanol 0.144% v/v vs low ethanol 0.072% v/v fed daily, 14 day fed-batch, mAb 1. On the procedure: as §1
as §2, with “0.072% (Low Ethanol)” for “0.0%”, “0.144% (High Ethanol) v/v.” for “0.057% v/v using microscale bioreactors and two different cellular clones producing mAb1.”, “0.79%-1.58%” for “0.0%-0.51%”, “oxygen maintained” for “oxygen”, “30% of” for “30%”, “saturation,” for “saturation and a”

Series [5] concerns CHO.DXB11 cells. The experiment in a line: Fatty acid cytotoxicity, daily feed dosing. To be noted: solubilized in ethanol, fed once daily, 10 μM to 160 μM. On the procedure:
Fatty acid cytotoxicity to CHO.DXB11 cells was determined by daily feed dosing. 4 mL of CHO cells at 4 e^6/mL cellular density were seeded into 6 well deep plates, mixed at 150 RPM, and daily fed fatty acids. Fatty acids were solubilized in ethanol and fed once daily to increase well plate concentration from 10 μM to 160 μM.

[6] abbreviates: Formulation 1, ethanol 0.018% v/v fed daily vs baseline lacking ethanol.
[7] abbreviates: Formulation 2, ethanol 0.018% v/v fed daily vs baseline lacking ethanol.

SMILES strings stand for the structures. Read-outs that look alike come from different tables or passages of the source.

Turning to `CCO` [Ethanol, ethanol], the “Daily ethanol feeding above which cell growth rate and cell viability were negatively affected” value in the series on CHO.DXB11 cells [1] was “exceeded 0.3 % v/v”. In addition, in the series with CHO.DXB11 cells [2] (setting [6]), the “Effect on G0F glycan species” value is “less”, the “Effect on G0 glycan species” value was “less”, the “Effect on G1F glycan species” value is on record as “increased” and the “Effect on G2F glycan species” value is reported as “increased”. In the series on CHO.DXB11 cells [2] (setting [6]), the “Effect on Man5 glycan species” value was “increased”, the “Effect on acidic charge variants” value is given as “less” and the “Effect on basic charge variants” value is listed as “increased”. For the same compound, in the series on CHO.DXB11 cells [2] (setting [7]), the “Effect on G0F glycan species” value is “greater”, the “Effect on G0 glycan species” value is “decreased”, the “Effect on G1F glycan species” value is on record as “decreased” and the “Effect on G2F glycan species” value was “greater”. In addition, in the series with CHO.DXB11 cells [2] (setting [7]), the “Effect on Man5 glycan species” value is listed as “decreased” and the “Effect on acidic charge variants” value is on record as “higher”. Moreover, in the series on CHO.DXB11 derived clone (both cell lines (A and B)), the “Effect on G1F % glycan species” value is “increased”, the “Effect on G2F % glycan species” value is on record as “increased”, the “Effect on Man5% glycan species” value is “decreased” and the “Effect on relative amount of acidic charge variants” value is recorded as “decreased”. Moreover, in the series with CHO.DXB11 derived clone (both cell lines (A and B)), the “Effect on relative percentage of basic charge variants” value was “slightly increasing”. In addition, in the series on CHO.DXB11 derived clone (cell lines A and B), the “Effect on G0% glycan species” value was “varied with respect to the cell line” and the “Effect on G0F % glycan species” value was “varied with respect to the cell line”. Besides, in the series with CHO.DG44 derived clone, the “Effect on G0F glycan species” value is recorded as “decreased”, the “Effect on G0 glycan species” value was “increased”, the “Effect on G1F glycan species” value is recorded as “increased” and the “Effect on G2F glycan species” value is “increased”. Besides, in the series with CHO.DG44 derived clone, the “Effect on Man5 glycan species” value was “decreased” and the “Effect on high molecular weight species” value is “decreased”. Moreover, in the series on CHO.DXB11 cells [3] (0.05% v/v ethanol fed daily), the “Change in Acidic %” value is listed as −4.7%, the “Change in Basic %” value was “+1.0%”, the “Change in G0%” value is reported as −0.7% and the “Change in Man5%” value is on record as −1.9%. Further, the “Change in Titer” value with CHO.DXB11 cells [3] (0.05% v/v ethanol fed daily) is given as “+2.0%”. For the same compound, in the series on CHO.DXB11 cells [3] (0.1% v/v ethanol fed daily), the “Change in Acidic %” value is given as −9.3%, the “Change in Basic %” value is “+1.9%”, the “Change in G0%” value was −1.3% and the “Change in Man5%” value is given as −3.8%. Also, the “Change in Titer” value with CHO.DXB11 cells [3] (0.1% v/v ethanol fed daily) is recorded as “+3.9%”. Moreover, in the series on CHO.DXB11 cells [4], the “Effect on G0 glycan species” value is “less”, the “Effect on G1F glycan species” value is given as “greater”, the “Effect on G2F glycan species” value was “greater” and the “Effect on Man5 glycan species” value is recorded as “less”. Moreover, in the series with CHO.DXB11 cells [4], the “Effect on high molecular weight species” value is reported as “less” and the “Effect on low molecular weight species” value is “less”.
`CC/C=C\C/C=C\C/C=C\CCCCCCCC(=O)O` [linolenic acid]: the “Daily feeding concentration at which the supplement became toxic” value in the series on CHO.DXB11 cells [5] is “around 40 μM”.
